Measured values: paper PMC9475448, “What a difference a methylene makes: replacing Glu with Asp or Aad in the Lys-urea-Glu pharmacophore of PSMA-targeting radioligands to reduce kidney and salivary gland uptake” (Theranostics, 2022)
Entries after “also recorded” stand apart in the source; their conditions may differ. Like-named read-outs stand apart in the source and are kept apart here.

What was measured:
[1] = test system: LNCaP tumor-bearing mice; assay: Radioligand therapy study in LNCaP tumor-bearing NRG mice
[2] = test system: LNCaP tumor-bearing mice; conditions: mouse, in vivo
[3] = test system: LNCaP tumor-bearing mice; assay: Longitudinal SPECT/CT imaging of 177Lu-labeled ligands; format: in vivo
Method: SPECT/CT imaging experiments were conducted using the MILabs (Utrecht, The Netherlands) U-SPECT-II/CT scanner. Each tumor-bearing mouse (n = 1-2 was injected with ∼37 MBq (50-250 pmol) of ^177Lu-labeled compound through a lateral caudal tail vein. The mice were imaged at 1, 4, 24, 72, and 120 h after injection. At each time point, a 5-min CT scan was conducted first for anatomical reference followed by 2 × 30-min static emission scans acquired in list mode.

[4] = test system: LNCaP tumor and major mouse organs/tissues; assay: Radiation dosimetry calculation with OLINDA software from biodistribution data; conditions: 25-g mouse
Source text: The biodistribution data (available in the Supplemental Table s 5- 6) were used to determine the kinetics input values required by OLINDA. First, each of the values was decayed to its corresponding time point (the values on the table are shown at injection time). Then the different time-points of the uptake data (%IA/g) for each organ were fitted to both mono- exponential ( ) and bi-exponential ( ) functions using in-house software developed in Python. The best fit was selected based on maximizing the coefficient of determination (R2) of the fit and minimizing the residuals. The areas under the curves were analytically calculated based on the parameters obtained from the best fit of each organ and this provided the kinetic input values required by OLINDA.
In the mouse case, the adrenals, blood, fat, and muscle are not modeled in the phantom. These organs were grouped together and included in what OLINDA calls the remainder of the body .
Lastly, the numbers of decays in the tumors were also calculated based on the biodistribution data of the mice and the values were inputted into the sphere model available in OLINDA.

[5] = test system: LNCaP tumor-bearing mice; assay: Ex vivo biodistribution of 177Lu-labeled ligands in LNCaP tumor-bearing NRG mice
[6] = 1 h post-injection, listed as [177Lu]Lu-HTK03149
[7] = 4 h post-injection, listed as [177Lu]Lu-HTK03149

## O=C([O-])CN1CCN(CC(=O)[O-])CCN(CC(=O)NCC2CCC(C(=O)NC(Cc3c4ccccc4cc4ccccc34)C(=O)NCCCCC(NC(=O)NC(CCCC(=O)O)C(=O)O)C(=O)O)CC2)CCN(CC(=O)[O-])CC1.[177Lu+3] (centres unmarked) [[^177Lu]Lu-HTK03149]
[1]; 9.3 MBq injected
  Median survival: 52 days
[1]; 18.5 MBq injected
  Median survival: 63 days
[1]; 37 MBq injected
  Median survival: 88 days
[1]; 74 MBq injected
  Median survival: 142 days
[1]; 148 MBq injected
  Median survival: >180 days
[1]; injected radioactivity as high as 148 MBq
  Weight loss of treated mice: did not observe any weight loss
[2]
  Spleen uptake: 0.142 ± 0.062 %IA/g
[3]; mouse, in vivo
  Excretion pathway (SPECT imaging): excreted mainly through the renal pathway; also recorded: excreted mainly via the renal pathway
[3]; ~37 MBq injected
  Tumor size change in SPECT/CT images: tumors shrank from Day 1 to Day 5
[4]; source organ Brain
  Kinetics value: 2.23E-03 MBq-h/MBq
[4]; source organ Cortical bone
  Kinetics value: 7.60E-02 MBq-h/MBq
[4]; source organ Heart contents
  Kinetics value: 1.94E-02 MBq-h/MBq
[4]; source organ Kidneys
  Kinetics value: 2.41E-01 MBq-h/MBq
[4]; source organ Large intestine
  Kinetics value: 9.24E-02 MBq-h/MBq
[4]; source organ Liver
  Kinetics value: 3.91E-01 MBq-h/MBq
[4]; source organ Lungs
  Kinetics value: 1.72E-02 MBq-h/MBq
[4]; source organ Pancreas
  Kinetics value: 1.79E-02 MBq-h/MBq
[4]; source organ Remainder of the body
  Kinetics value: 5.31E-01 MBq-h/MBq
[4]; source organ Small intestine
  Kinetics value: 2.76E-01 MBq-h/MBq
[4]; source organ Spleen
  Kinetics value: 2.30E-02 MBq-h/MBq
[4]; source organ Stomach
  Kinetics value: 8.07E-03 MBq-h/MBq
[4]; source organ Testes
  Kinetics value: 1.29E-02 MBq-h/MBq
[4]; source organ Thyroid
  Kinetics value: 2.03E-03 MBq-h/MBq
[4]; source organ Urinary bladder contents
  Kinetics value: 8.14E-01 MBq-h/MBq
[5]; 1 h post-injection
  Adrenal glands uptake: 0.352 ± 0.071 %IA/g
  Blood uptake: 0.876 ± 0.073 %IA/g
  Blood:Salivary gland uptake ratio: 3.98 ± 0.65
  Bone uptake: 0.072 ± 0.020 %IA/g
  Brain uptake: 0.022 ± 0.002 %IA/g
  Fat uptake: 0.136 ± 0.049 %IA/g
  Heart uptake: 0.281 ± 0.036 %IA/g
  Intestines uptake: 0.267 ± 0.063 %IA/g
  Kidneys uptake: 7.67±1.35 %IA/g
  Lacrimal glands uptake: 0.022 ± 0.006 %IA/g
  Liver uptake: 0.264 ± 0.031 %IA/g
  Lungs uptake: 0.721 ± 0.056 %IA/g
  Muscle uptake: 0.182 ± 0.138 %IA/g
  Pancreas uptake: 0.165 ± 0.028 %IA/g
  Salivary glands uptake: 0.23±0.06 %IA/g
  Spleen uptake: 0.260 ± 0.045 %IA/g
  Stomach uptake: 0.096 ± 0.020 %IA/g
  Testes uptake: 0.255 ± 0.019 %IA/g
  Thyroid uptake: 0.269 ± 0.021 %IA/g
  Tumor uptake: 13.96 ± 2.155 %IA/g
  Tumor:Blood uptake ratio: 16.0 ± 2.44
  Tumor:Muscle uptake ratio: 101 ± 48.3
  Tumor:Salivary gland uptake ratio: 63.4 ± 13.6
[5]; [6]
  Kidneys uptake: 7.672 ± 1.346 %IA/g
  Salivary glands uptake: 0.227 ± 0.062 %IA/g
[5]; 4 h post-injection
  Adrenal glands uptake: 0.085 ± 0.007 %IA/g
  Blood uptake: 0.167 ± 0.033 %IA/g
  Blood:Salivary gland uptake ratio: 3.32 ± 0.59
  Bone uptake: 0.016 ± 0.010 %IA/g
  Brain uptake: 0.010 ± 0.001 %IA/g
  Fat uptake: 0.021 ± 0.003 %IA/g
  Heart uptake: 0.070 ± 0.013 %IA/g
  Intestines uptake: 0.185 ± 0.067 %IA/g
  Kidneys uptake: 1.67±0.38 %IA/g
  Lacrimal glands uptake: 0.029 ± 0.014 %IA/g
  Liver uptake: 0.108 ± 0.010 %IA/g
  Lungs uptake: 0.169 ± 0.012 %IA/g
  Muscle uptake: 0.021 ± 0.005 %IA/g
  Pancreas uptake: 0.034 ± 0.004 %IA/g
  Salivary glands uptake: 0.05±0.01 %IA/g
  Spleen uptake: 0.089 ± 0.020 %IA/g
  Stomach uptake: 0.049 ± 0.021 %IA/g
  Testes uptake: 0.056 ± 0.005 %IA/g
  Thyroid uptake: 0.066 ± 0.008 %IA/g
  Tumor uptake: 20.9±2.99 %IA/g
  Tumor:Muscle uptake ratio: 1028 ± 227
  Tumor:Salivary gland uptake ratio: 415 ± 60.5
[5]; [7]
  Kidneys uptake: 1.666 ± 0.378 %IA/g
  Salivary glands uptake: 0.051 ± 0.010 %IA/g
  Tumor uptake: 20.90 ± 2.988 %IA/g
[5]; 24 h post-injection
  Adrenal glands uptake: 0.073 ± 0.018 %IA/g
  Blood uptake: 0.116 ± 0.007 %IA/g
  Blood:Salivary gland uptake ratio: 2.37 ± 0.24
  Bone uptake: 0.025 ± 0.003 %IA/g
  Brain uptake: 0.006 ± 0.001 %IA/g
  Fat uptake: 0.017 ± 0.002 %IA/g
  Heart uptake: 0.065 ± 0.004 %IA/g
  Intestines uptake: 0.086 ± 0.047 %IA/g
  Kidneys uptake: 0.596 ± 0.109 %IA/g
  Lacrimal glands uptake: 0.004 ± 0.005 %IA/g
  Liver uptake: 0.103 ± 0.008 %IA/g
  Lungs uptake: 0.122 ± 0.015 %IA/g
  Muscle uptake: 0.017 ± 0.003 %IA/g
  Pancreas uptake: 0.032 ± 0.005 %IA/g
  Salivary glands uptake: 0.049 ± 0.007 %IA/g
  Spleen uptake: 0.085 ± 0.012 %IA/g
  Stomach uptake: 0.125 ± 0.112 %IA/g
  Testes uptake: 0.047 ± 0.003 %IA/g
  Thyroid uptake: 0.060 ± 0.002 %IA/g
  Tumor uptake: 13.80 ± 2.876 %IA/g
  Tumor:Blood uptake ratio: 120 ± 31.1
  Tumor:Muscle uptake ratio: 842 ± 216
  Tumor:Salivary gland uptake ratio: 286 ± 88.4
[5]; 72 h post-injection
  Adrenal glands uptake: 0.124 ± 0.052 %IA/g
  Blood uptake: 0.067 ± 0.016 %IA/g
  Blood:Salivary gland uptake ratio: 1.45 ± 0.69
  Bone uptake: 0.026 ± 0.011 %IA/g
  Brain uptake: 0.003 ± 0.002 %IA/g
  Fat uptake: 0.042 ± 0.042 %IA/g
  Heart uptake: 0.060 ± 0.014 %IA/g
  Intestines uptake: 0.088 ± 0.034 %IA/g
  Kidneys uptake: 0.679 ± 0.387 %IA/g
  Lacrimal glands uptake: 0.006 ± 0.007 %IA/g
  Liver uptake: 0.130 ± 0.034 %IA/g
  Lungs uptake: 0.108 ± 0.022 %IA/g
  Muscle uptake: 0.018 ± 0.003 %IA/g
  Pancreas uptake: 0.033 ± 0.002 %IA/g
  Salivary glands uptake: 0.051 ± 0.016 %IA/g
  Stomach uptake: 0.140 ± 0.104 %IA/g
  Testes uptake: 0.053 ± 0.008 %IA/g
  Thyroid uptake: 0.079 ± 0.008 %IA/g
  Tumor uptake: 17.1±4.70 %IA/g
  Tumor:Blood uptake ratio: 258 ± 74.7
  Tumor:Muscle uptake ratio: 985 ± 342
  Tumor:Salivary gland uptake ratio: 349 ± 109
[5]; 72 h post-injection, listed as [177Lu]Lu-HTK03149
  Tumor uptake: 17.12 ± 4.702 %IA/g
[5]; 120 h post-injection
  Adrenal glands uptake: 0.024 ± 0.027 %IA/g
  Blood uptake: 0.021 ± 0.006 %IA/g
  Blood:Salivary gland uptake ratio: 0.75 ± 0.19
  Bone uptake: 0.015 ± 0.007 %IA/g
  Brain uptake: 0.002 ± 0.001 %IA/g
  Fat uptake: 0.014 ± 0.009 %IA/g
  Heart uptake: 0.034 ± 0.014 %IA/g
  Intestines uptake: 0.069 ± 0.046 %IA/g
  Kidneys uptake: 0.276 ± 0.064 %IA/g
  Lacrimal glands uptake: 0.001 ± 0.002 %IA/g
  Liver uptake: 0.079 ± 0.041 %IA/g
  Lungs uptake: 0.086 ± 0.076 %IA/g
  Muscle uptake: 0.012 ± 0.004 %IA/g
  Pancreas uptake: 0.020 ± 0.007 %IA/g
  Salivary glands uptake: 0.029 ± 0.007 %IA/g
  Spleen uptake: 0.129 ± 0.079 %IA/g
  Stomach uptake: 0.084 ± 0.041 %IA/g
  Testes uptake: 0.033 ± 0.012 %IA/g
  Thyroid uptake: 0.044 ± 0.015 %IA/g
  Tumor uptake: 16.39 ± 10.99 %IA/g
  Tumor:Blood uptake ratio: 780 ± 451
  Tumor:Muscle uptake ratio: 1336 ± 566
  Tumor:Salivary gland uptake ratio: 533 ± 218
